# Assay results as given in patent publication EP0880966A1, “THIAMINE DISULFIDES AND MEDICINES CONTAINING THE SAME AS THE ACTIVE INGREDIENT” (NISSUI PHARMACEUTICAL CO., LTD., priority 1996, dated 1998).
# Like-named read-outs stand apart in the source and are kept apart here.
# System: CEM/LAV-1
# Settings: for TCID50/ml / Inhibition rate (%): CEM/LAV-1 cells cultured 96 hours; for TCID50/ml: titer by 72-hour culture on MT-4 cells, control 4 x 10^5; for Inhibition rate (%): versus control without agent
# Protocol: A test agent was added at predetermined concentrations to cells (2 x 10^5 cells/ml, 10 ml) persistently infected with HIV in a logarithmic growth phase to culture the cells for 96 hours. The number of viable cells and the number of killed cells were counted every 24 hours by a trypan blue dye exclusion test to determine the cytotoxic effect of the test agent on the cells. A viral infectious titer (TCID50/ml) in each of the culture solutions incubated for 96 hours was determined by 72-hour culture using, as an index, the giant cell formation of MT-4 cells. In a control group, the cells were cultured in a medium free of any agent. An anti-HIV activity (inhibition %) was determined in accordance with the following equation: Anti-HIV activity (inhibition %) =(TC)/(TC)x 100 [formula]
smiles,measurement,setting,value
"CCCCCCCCCCCCCC(=O)OCC/C(SS/C(CCOC(=O)CCCCCCCCCCCCC)=C(/C)N(C=O)Cc1cnc(C)nc1N)=C(\C)N(C=O)Cc1cnc(C)nc1N [compound (1), thiamine disulfide dimyristate]",inhibitory effect,"CEM/LAV-1 cells, concentration of from 50 to 125 µm",~100%
same,TCID50/ml,Invention compound 50 µM,8 x 10^2 TCID50/ml
same,Inhibition rate (%),Invention compound 50 µM,99.5%
same,TCID50/ml,Invention compound 125 µM,8 x 10^2 TCID50/ml
same,Inhibition rate (%),Invention compound 125 µM,99.5%
